Experiments:
[1] = system: RXR; test: RXR transactivation test; assay type: cell-based; conditions: for RXR transactivation test (%): tested compound at 10 μM, relative to control 6-[1-(3,5,5,8,8-pentamethyl-5,6,7,8-tetrahydronaphthalen-2-yl)cyclopropyl]nicotinic acid at 10^-8 M; for AC50: read-out: RXR transactivation AC 50
Description: We further tested compounds according to the claimed invention to ascertain their activity in assays that identify molecules as RXR-agonists. […] These references are incorporated by reference in their entirety herein.
The percentage values in the Table correspond to the percentage of activities of the tested compound at a concentration of 10 μM. This is relative to a control compound, 6-[1-(3,5,5,8,8-pentamethyl-5,6,7,8-tetrahydronaphthalen-2-yl)cyclopropyl]nicotinic acid, at a concentration of 10^-8 M.

[2] = molecular target: RXR; test: RXR binding

Structure (SMILES)	RXR transactivation test (%) [1] [%]	AC50 [1] [µM]	Ki [2] [µM]
CC1(C)CCC(C)(C)c2cc(Oc3ccc(C(=O)O)cc3)ccc21 [Example 1, 4-(5,6,7,8-tetrahydro-5,5,8,8-tetramethyl-2-naphthyloxy)benzoic acid]	33	–	–
CC1(C)CCC(C)(C)c2cc([S+]([O-])c3ccc(C(=O)O)cc3)ccc21 (centres unmarked) [Example 3, 4-(5,6,7,8-tetrahydro-5,5,8,8-tetramethyl-2-naphthylsulfinyl)benzoic acid]	25	–	–
CC1(C)CCC(C)(C)c2cc(Nc3ccc(C(=O)O)cc3)ccc21 [Example 5, 4-(5,6,7,8-tetrahydro-5,5,8,8-tetramethyl-2-naphthylamino)benzoic acid]	21	–	–
CC1(C)CCC(C)(C)c2cc(Sc3ccc(C(=O)O)s3)ccc21 [Example 6, 5-(5,6,7,8-tetrahydro-5,5,8,8-tetramethyl-2-naphthylthio)-2-thiophenecarboxylic acid]	39	–	–
Cc1cc2c(cc1Oc1ccc(C(=O)O)cc1)C(C)(C)CCC2(C)C [Example 7, 4-(3,5,5,8,8-pentamethyl-5,6,7,8-tetrahydro-2-naphthyloxy)benzoic acid]	48	0.355	–
Cc1cc2c(cc1Sc1ccc(C(=O)O)cc1)C(C)(C)CCC2(C)C [Example 8, 4-(3,5,5,8,8-pentamethyl-5,6,7,8-tetrahydro-2-naphthylthio)benzoic acid]	118	0.3	3.74
CCc1cc2c(cc1Oc1ccc(C(=O)O)cc1)C(C)(C)CCC2(C)C [Example 9, 4-(3-ethyl-5,5,8,8-tetramethyl-5,6,7,8-tetrahydro-2-naphthyloxy)benzoic acid]	108	0.279	2.82
CC(C)c1cc2c(cc1Oc1ccc(C(=O)O)cc1)C(C)(C)CCC2(C)C [Example 10, 4-(3-isopropyl-5,5,8,8-tetramethyl-5,6,7,8-tetrahydro-2-naphthyloxy)benzoic acid]	81	0.495	2.48
CC1(C)CCC(C)(C)c2cc(Oc3ccc(C(=O)O)cc3)c(Br)cc21 [Example 13, 4-(3-bromo-5,6,7,8-tetrahydro-5,5,8,8-tetramethyl-2-naphthyloxy)benzoic acid]	57	–	1.13
CCc1cc2c(cc1Oc1ccc(C(=O)O)cc1C)C(C)(C)CCC2(C)C [Example 16, 3-methyl-4-(3-ethyl-5,6,7,8-tetrahydro-5,5,8,8-tetramethyl-2-naphthyloxy)benzoic acid]	38	–	–
Cc1cc2c(cc1Sc1ccc(C(=O)O)cn1)C(C)(C)CCC2(C)C [Example 17, 6-(3,5,5,8,8-pentamethyl-5,6,7,8-tetrahydro-2-naphthylthio)nicotinic acid]	102	0.048	0.538
Cc1cc2c(cc1Sc1ccc(C(=O)O)c(Cl)c1)C(C)(C)CCC2(C)C [Example 19, 2-chloro-4-(3,5,5,8,8-pentamethyl-5,6,7,8-tetrahydro-2-naphthylthio)benzoic acid]	58	0.656	–
CCc1cc2c(cc1Sc1ccc(C(=O)O)cc1)C(C)(C)CCC2(C)C [Example 20, 4-(3-ethyl-5,6,7,8-tetrahydro-5,5,8,8-tetramethyl-2-naphthylthio)benzoic acid]	41	–	3.95
Cc1cc2c(cc1Sc1ccc(CO)cc1)C(C)(C)CCC2(C)C [Example 23, 4-(3,5,5,8,8-pentamethyl-5,6,7,8-tetrahydro-2-naphthylthio)benzenemethanol]	3	–	–
Cc1cc2c(cc1Sc1ccc(C=O)cc1)C(C)(C)CCC2(C)C [Example 24, 4-(3,5,5,8,8-pentamethyl-5,6,7,8-tetrahydro-2-naphthylthio)benzaldehyde]	17	–	–
CCNC(=O)c1ccc(Sc2cc3c(cc2C)C(C)(C)CCC3(C)C)cc1 [Example 25, N-ethyl-4-(3,5,5,8,8-pentamethyl-5,6,7,8-tetrahydro-2-naphthylthio)benzamide]	15	–	–
Cc1cc2c(cc1Sc1ccc(C(=O)Nc3ccc(O)cc3)cc1)C(C)(C)CCC2(C)C [Example 26, N-4-hydroxyphenyl-4-(3,5,5,8,8-pentamethyl-5,6,7,8-tetrahydro-2-naphthylthio)benzamide]	14	–	–

Reference: patent US6162815A, “RXR-agonist polycyclic aromatic compounds, pharmaceutical/cosmetic compositions comprising said compound and uses thereof” (Centre International de Recherches Dermatologiques Galderma, priority 1994, dated 2000)
